Measured values reported in patent US5891909A, “Amidinohydrazones as protease inhibitors” (3-Dimensional Pharmaceuticals, Inc., priority 1997, dated 1999).
Counter-ions that a name gives are not always drawn. Like-named read-outs stand apart in the source and are kept apart here.

How the values were obtained:
Type in all cases: biochemical
human α-thrombin = molecular target: T1, human α-thrombin (Homo sapiens, UniProt P00734); experiment: Thrombin inhibition, Ki determination (hydrolysis of N-succinyl-Ala-Ala-Pro-Arg-p-nitroanilide); conditions: pH 7.5, 37° C.
T1 construct: Human α-thrombin, human factor Xa and human plasmin were obtained from Enzyme Research Laboratories; purchased Enzyme Research Laboratories (South Bend, Ind.)
Text: (§1) All buffer salts were obtained from Sigma Chemical Company (St. Louis, Mo.), and were of the highest purity available. The enzyme substrates, N-benzoyl-Phe-Val-Arg-p-nitroanilide (Sigma B7632), N-benzoyl-Ile-Glu-Gly-Arg-p-nitroanilide hydrochloride (Sigma B2291), N-p-Tosyl-Gly-Pro-Lys-p-nitroanilide (Sigma T6140), N-succinyl-Ala-Ala-Pro-Phe-p-nitroanilide (Sigma S7388) and N-CBZ-Val-Gly-Arg-p-nitroanilide (Sigma C7271) were obtained from Sigma.
Human α-thrombin, human factor Xa and human plasmin were obtained from Enzyme Research Laboratories (South Bend, Ind.). Bovine α-chymotrypsin (Sigma C4129), bovine trypsin (Sigma T8642) and human kidney cell urokinase (Sigma U5004) were obtained from Sigma. Human leukocyte elastase was obtained from Elastin Products (Pacific, Mo.).
All assays are based on the ability of the test compound to inhibit the enzyme catalyzed hydrolysis of a peptide p-nitroanilide substrate. […] The final concentrations for each of the substrates is listed below. In general, substrate concentrations are lower than the experimentally determined value for Km. Test compounds are prepared as a 1.0 mg/ml solution in DMSO. Dilutions are prepared in DMSO yielding 8 final concentrations encompassing a 200 fold concentration range. Enzyme solutions are prepared at the concentrations listed below in assay buffer.
Data corresponding to less than 10% of the total substrate hydrolysis were used in the calculations. The ratio of the velocity (rate of change in absorbance as a function of time) for a sample containing no test compound is divided by the velocity of a sample containing test compound, and is plotted as a function of test compound concentration. The data are fit to a linear regression, and the value of the slope of the line calculated. The inverse of the slope is the experimentally determined Ki value.
Thrombin activity was assessed as the ability to hydrolyze the substrate N-succinyl-Ala-Ala-Pro-Arg-p-nitroanilide.

human plasmin = experiment: Plasmin inhibition (hydrolysis of N-p-Tosyl-Gly-Pro-Lys-p-nitroanilide); conditions: at 1.6 μM
Text: as §1, with “Sigma. N-succinyl-Ala-Ala-Pro-Arg-p-nitroanilide (BACHEM L-1720) and N-succinyl-Ala-Ala-Pro-Val-p-nitroanilide (BACHEM L-1770) were obtained from BACHEM (King of Prussia, Pa.). […]” for “Sigma.”
(§2) All assays are based on the ability of the test compound to inhibit the enzyme catalyzed hydrolysis of a peptide p-nitroanilide substrate. […] In general, substrate concentrations are lower than the experimentally determined value for Km. […]
(§3) In a typical Ki determination, into each well of a 96 well plate is pipetted 280 μL of substrate solution, 10 μL of test compound solution, and the plate allowed to thermally equilibrate at 37° C. in a Molecular Devices plate reader for >15 minutes. Reactions were initiated by the addition of a 10 μL aliquot of enzyme and the absorbance increase at 405 nm is recorded for 15 minutes. […] The data are fit to a linear regression, and the value of the slope of the line calculated. The inverse of the slope is the experimentally determined Ki value. […]

human kidney urokinase = experiment: Urokinase inhibition (hydrolysis of N-CBZ-Val-Gly-Arg-p-nitroanilide); conditions: at 1.6 μM
Text: as §1, with “Sigma. N-succinyl-Ala-Ala-Pro-Arg-p-nitroanilide (BACHEM L-1720) and N-succinyl-Ala-Ala-Pro-Val-p-nitroanilide (BACHEM L-1770) were obtained from BACHEM (King of Prussia, Pa.). […]” for “Sigma.”
as §2, §3

human factor Xa = experiment: Factor Xa inhibition (hydrolysis of N-benzoyl-Ile-Glu-Gly-Arg-p-nitroanilide); conditions: at 1.6 μM
Text: as §1, with “Sigma. N-succinyl-Ala-Ala-Pro-Arg-p-nitroanilide (BACHEM L-1720) and N-succinyl-Ala-Ala-Pro-Val-p-nitroanilide (BACHEM L-1770) were obtained from BACHEM (King of Prussia, Pa.). […]” for “Sigma.”
as §2, §3

bovine trypsin = experiment: Trypsin inhibition (hydrolysis of N-benzoyl-Phe-Val-Arg-p-nitroanilide); conditions: at 1.6 μM
Text: as §1, with “Sigma. N-succinyl-Ala-Ala-Pro-Arg-p-nitroanilide (BACHEM L-1720) and N-succinyl-Ala-Ala-Pro-Val-p-nitroanilide (BACHEM L-1770) were obtained from BACHEM (King of Prussia, Pa.). […]” for “Sigma.”
as §2, §3

bovine α-chymotrypsin = experiment: Chymotrypsin inhibition (hydrolysis of N-succinyl-Ala-Ala-Pro-Phe-p-nitroanilide); conditions: at 1.6 μM
Text: as §1, with “Sigma. N-succinyl-Ala-Ala-Pro-Arg-p-nitroanilide (BACHEM L-1720) and N-succinyl-Ala-Ala-Pro-Val-p-nitroanilide (BACHEM L-1770) were obtained from BACHEM (King of Prussia, Pa.). […]” for “Sigma.”
as §2, §3

human leukocyte elastase = experiment: Elastase inhibition (hydrolysis of N-succinyl-Ala-Ala-Pro-Val-p-nitroanilide); conditions: at 1.6 μM
Text: as §1, with “Sigma. N-succinyl-Ala-Ala-Pro-Arg-p-nitroanilide (BACHEM L-1720) and N-succinyl-Ala-Ala-Pro-Val-p-nitroanilide (BACHEM L-1770) were obtained from BACHEM (King of Prussia, Pa.). […]” for “Sigma.”
as §2, §3

| Ki (human α-thrombin; Table 2, read-out: Ki (thrombin)) [nM] | % Inhibition (urokinase) (human kidney urokinase) [%] | % Inhibition (elastase) (human leukocyte elastase) [%] | Ki (human α-thrombin; Table 1, read-out: Thrombin Ki) [nM] | SMILES | % Inhibition (plasmin) (human plasmin) [%] | % Inhibition (Factor Xa) (human factor Xa) [%] | % Inhibition (trypsin) (bovine trypsin) [%] | % Inhibition (chymotrypsin) (bovine α-chymotrypsin) [%] |
| --- | --- | --- | --- | --- | --- | --- | --- | --- |
| 13 | 0 | 0 |  | Cc1cc(OCCC=NNC(=N)N)cc(OS(=O)(=O)c2ccccc2Cl)c1 [Example 1, 2-[2-[3-(2-Chlorophenylsulfonyloxy)-5-methylphenoxy]ethyl-1-methylene]hydrazinecarboximidamide hydrochloride] | 0 | 0 | 0 | 0 |
|  |  |  | 8.9 | Cc1cc(OCCC=NNC(=N)N)cc(OS(=O)(=O)c2cccc(C)c2)c1 [Example 12, 2-[2-[5-Methyl-3-(3-methylphenylsulfonyloxy)phenoxy]ethyl-1-methylene]hydrazinecarboximidamide nitrate] |  |  |  |  |
|  |  |  | 33.4 | Cc1cc(OCCC=NNC(=N)N)cc(OS(=O)(=O)c2cc(C)ccc2C#N)c1 [Example 30, 2-[2-[3-(2-Cyano-5-methylphenylsulfonyloxy)-5-methylphenoxy]ethyl-1-methylene]hydrazinecarboximidamide nitrate] |  |  |  |  |
